Experimental data from US20060276464A1, “Diarylsulfone sulfonamides and use thereof” (Wyeth, priority 2005, published 2006).
Values joined by “and” are separate entries in the source; they are usually repeats but may differ in a detail not shown here. Identical values can stand only once. Like-named read-outs stand apart in the source and are kept apart here.

Tests used:
SFRP-1 [1] = target: T1, SFRP-1 (Homo sapiens, UniProt Q8N474); assay: Fluorescence polarization binding assay (competitive displacement of a probe compound from SFRP-1); conditions: fluorescence anisotropy, 45 nM SFRP-1, 20 nM probe;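 note: test compound competes with a fluorescent probe held by SFRP-1, seen as a drop in probe anisotropy after incubation in darkness, with anisotropy as function of rising compound dose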
T1 sequence (Q8N474 32-314): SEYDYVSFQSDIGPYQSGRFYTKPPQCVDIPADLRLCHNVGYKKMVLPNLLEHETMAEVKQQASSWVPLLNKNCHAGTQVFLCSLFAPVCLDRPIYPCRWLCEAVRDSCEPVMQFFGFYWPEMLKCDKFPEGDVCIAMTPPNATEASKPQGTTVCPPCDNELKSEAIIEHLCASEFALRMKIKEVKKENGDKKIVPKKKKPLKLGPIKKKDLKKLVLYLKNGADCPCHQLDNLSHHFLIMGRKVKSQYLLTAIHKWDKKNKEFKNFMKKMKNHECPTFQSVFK

SFRP-1 [2] = target: T1, SFRP-1; assay: Cell-based assay for in vitro measurement of SFRP-1/SARP2 antagonist activity (U2OS cells co-transfected with 16x TCF-tk-Luciferase reporter, Wnt and hSFRP-1); conditions: for fold induction at 10 µM / fold induction at 15 µM: U2OS;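 for all read-outs here: U2OS cells co-transfected with a TCF-tk luciferase reporter, a Wnt vector, hSFRP-1 or empty vector and CMV-βgal, luciferase luminescence read in cell lysates alongside βgal activity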
[3] = read-out: Fold Induction with SFRP-1, U2OS cells, single dose 10 μM, luciferase reporter, fold induction over SFRP-1 control
[4] = read-out: Fold Induction with SFRP-1, Conc 15 μM, single dose, luciferase reporter, fold induction over SFRP-1 control, cells with SFRP-1
[5] = read-out: Fold Induction without SFRP-1, Conc 15 μM, single dose, luciferase reporter, cells without SFRP-1 (specificity control)
[6] = read-out: Fold Induction with SFRP-1, Conc 15 μM, with SFRP-1, fold induction over SFRP-1 control, single dose
[7] = read-out: Fold Induction without SFRP-1, Conc 15 μM, without SFRP-1, single dose

| SMILES | IC50 (SFRP-1 [1]) | EC50 (SFRP-1 [2]) [nM] | fold induction at 10 µM (SFRP-1 [2]; [3]) | fold induction at 15 µM (SFRP-1 [2]; [4]) | fold induction at 15 µM (SFRP-1 [2]; [5]) | fold induction at 10 µM (SFRP-1 [2]; read-out: Fold Induction with SFRP-1) | fold induction at 15 µM (SFRP-1 [2]; [6]) | fold induction at 15 µM (SFRP-1 [2]; [7]) |
| --- | --- | --- | --- | --- | --- | --- | --- | --- |
| CN(CCNS(=O)(=O)c1cc(S(=O)(=O)c2ccccc2)ccc1C(F)(F)F)C(=O)NC1CCNCC1 [Example 881, N-(2-{methyl[(piperidin-4-ylamino)carbonyl]amino}ethyl)-5-(phenylsulfonyl)-2-(trifluoromethyl)benzenesulfonamide] | 280 nM | 850 | 3.4 | – | – | – | – | – |
| CN(CCNS(=O)(=O)c1cc(S(=O)(=O)c2ccccc2)ccc1C(F)(F)F)C(=O)c1ccccc1OC(F)(F)F [Example 839, N-Methyl-N-[2-({[5-(phenylsulfonyl)-2-(trifluoromethyl)phenyl]sulfonyl}amino)ethyl]-2-(trifluoromethoxy)benzamide] | 300 nM | 2380 | 3.5 | – | – | – | – | – |
| CC(C)c1ccc(S(=O)(=O)c2cccc(OC(F)(F)F)c2)cc1S(=O)(=O)NCCc1ccccn1 [Example 506, 2-isopropyl-N-(2-pyridin-2-ylethyl)-5-{[3-(trifluoromethoxy)phenyl]sulfonyl}benzenesulfonamide] | 2400 nM | – | – | 2.7 | 1 | – | – | – |
| CN(CCNS(=O)(=O)c1cc(S(=O)(=O)c2ccccc2)ccc1C(F)(F)F)C(=O)N[C@H]1CCN(C(=O)OC(C)(C)C)C1 [Example 926, tert-butyl (3S)-3-[({methyl[2-({[5-(phenylsulfonyl)-2-(trifluoromethyl)phenyl]sulfonyl}amino)ethyl]amino}carbonyl)amino]pyrrolidine-1-carboxylate] | 500 nM | 1360 | 3.6 | – | – | – | – | – |
| CN(CCNS(=O)(=O)c1cc(S(=O)(=O)c2ccccc2)ccc1C(F)(F)F)C(=O)Oc1cccc(C(F)(F)F)c1 [Example 871, 3-(trifluoromethyl)phenyl methyl[2-({[5-(phenylsulfonyl)-2-(trifluoromethyl)phenyl]sulfonyl}amino)ethyl]carbamate] | 600 nM | 3810 | – | – | – | 2 | – | – |
| Cc1ccc(S(=O)(=O)c2ccccc2)cc1S(=O)(=O)NC1CCN(S(C)(=O)=O)CC1 [Example 478, 2-methyl-N-[1-(methylsulfonyl)piperidin-4-yl]-5-(phenylsulfonyl)benzenesulfonamide] | 1300 nM | – | – | – | – | – | 2.3 | 1 |
| CCN(CC)C(=O)N(C)CCNS(=O)(=O)c1cc(S(=O)(=O)c2ccccc2)ccc1C(F)(F)F [Example 834, N-{2-[[(diethylamino)carbonyl](methyl)amino]ethyl}-5-(phenylsulfonyl)-2-(trifluoromethyl)benzenesulfonamide] | 400 nM | 1490 | 3 | – | – | – | – | – |
| CCOC(=O)N1CCC(NS(=O)(=O)c2cc(S(=O)(=O)c3ccc(F)cc3)ccc2C(C)C)CC1 [Example 526, ethyl 4-[({5-[(4-fluorophenyl)sulfonyl]-2-isopropylphenyl}sulfonyl)amino]piperidine-1-carboxylate] | 500 nM | – | – | 2.1 | 1.1 | – | – | – |
| CC(C)c1ccc(S(=O)(=O)c2ccc(F)cc2)cc1S(=O)(=O)NC1CCN(C(=O)c2ccc(C#N)cc2)CC1 [Example 531, N-[1-(4-cyanobenzoyl)piperidin-4-yl]-5-[(4-fluorophenyl)sulfonyl]-2-isopropylbenzenesulfonamide] | 400 nM | – | – | 2.5 | 1.1 | – | – | – |
| O=C(O)c1ccc(CCNS(=O)(=O)c2cc(S(=O)(=O)c3ccccc3)ccc2C(F)(F)F)cc1 [Example 877, 4-[2-({[5-(phenylsulfonyl)-2-(trifluoromethyl)phenyl]sulfonyl}amino)ethyl]benzoic acid] | 30 nM | 257 | 3.9 | – | – | – | – | – |
| O=S(=O)(NCC(O)c1ccccn1)c1cc(S(=O)(=O)c2ccccc2)ccc1C(F)(F)F (stereo not drawn) [Example 757, N-(2-hydroxy-2-pyridin-2-ylethyl)-5-(phenylsulfonyl)-2-(trifluoromethyl)benzenesulfonamide] | 1100 nM | – | 3.1 | – | – | – | – | – |
| Cc1ccc(S(=O)(=O)c2ccc(F)cc2)cc1S(=O)(=O)NC1CCN(C(=O)N(C)C)CC1 [Example 587, 4-[({5-[(4-fluorophenyl)sulfonyl]-2-methylphenyl}sulfonyl)amino]-N,N-dimethylpiperidine-1-carboxamide] | 5000 nM | – | – | 1.2 | 1.2 | – | – | – |
| O=S(=O)(NCC1(O)CCCCC1)c1cc(S(=O)(=O)c2ccccc2)ccc1C(F)(F)F [Example 868, N-[(1-hydroxycyclohexyl)methyl]-5-(phenylsulfonyl)-2-(trifluoromethyl)benzenesulfonamide] | 2500 nM | 2130 | 2.4 | – | – | – | – | – |
| CC(C)c1ccc(S(=O)(=O)c2cc(Cl)sc2Cl)cc1S(=O)(=O)NCCc1ccccn1 [Example 511, 5-[(2,5-dichloro-3-thienyl)sulfonyl]-2-isopropyl-N-(2-pyridin-2-ylethyl)benzenesulfonamide] | 1800 nM and 2300 nM | – | – | 2.8 | 0.9 | – | – | – |
| Cc1cc2cc(S(=O)(=O)c3ccc(C(F)(F)F)c(S(=O)(=O)NC4CCNCC4)c3)ccc2n1C [Example 792, 5-[(1,2-dimethyl-1H-indol-5-yl)sulfonyl]-N-piperidin-4-yl-2-(trifluoromethyl)benzenesulfonamide] | 200 nM | 2290 | 1.4 | – | – | – | – | – |
| O=C(c1cscn1)N1CCC(NS(=O)(=O)c2cc(S(=O)(=O)c3ccccc3)ccc2C(F)(F)F)CC1 [Example 1090, 5-(phenylsulfonyl)-N-[1-(1,3-thiazol-4-ylcarbonyl)piperidin-4-yl]-2-(trifluoromethyl)benzenesulfonamide] | 60 nM | 393 | – | – | – | – | – | – |
| COC(=O)CNC(=S)N1CCC(NS(=O)(=O)c2cc(S(=O)(=O)c3ccc(F)cc3)ccc2C(C)C)CC1 [Example 697, methyl N-({4-[({5-[(4-fluorophenyl)sulfonyl]-2-isopropylphenyl}sulfonyl)amino]piperidin-1-yl}carbonothioyl)glycinate] | 400 nM | 452 | 3.7 | – | – | – | – | – |
| Cc1ccc(S(=O)(=O)c2ccccc2)cc1S(=O)(=O)NC1CCN(C(=O)c2ccc3c(c2)OCO3)CC1 [Example 484, N-[1-(1,3-benzodioxol-5-ylcarbonyl)piperidin-4-yl]-2-methyl-5-(phenylsulfonyl)benzenesulfonamide] | 1500 nM | – | – | – | – | – | 2.4 | 1.1 |
| CC(C)COC(=O)N(C)CCNS(=O)(=O)c1cc(S(=O)(=O)c2ccccc2)ccc1C(F)(F)F [Example 870, isobutyl methyl[2-({[5-(phenylsulfonyl)-2-(trifluoromethyl)phenyl]sulfonyl}amino)ethyl]carbamate] | 800 nM | – | 2.5 | – | – | – | – | – |
| CC(C)c1ccc([S+]([O-])c2ccccc2)cc1S(=O)(=O)NCCc1ccccn1 (stereo not drawn) [Example 575, 2-isopropyl-5-(phenylsulfinyl)-N-(2-pyridin-2-ylethyl)benzenesulfonamide] | 1800 nM | – | – | 2.6 | 1.1 | – | – | – |
| Cc1ccc(S(=O)(=O)c2cccc(Cl)c2Cl)cc1S(=O)(=O)NCCCn1ccnc1 [Example 360, 5-[(2,3-dichlorophenyl)sulfonyl]-N-[3-(1H-imidazol-1-yl)propyl]-2-methylbenzenesulfonamide] | 2000 nM | – | – | – | – | – | 1.9 | 0.9 |
